{"source": "patent US20210059984A1", "about": "“METHOD AND COMPOSITION FOR REVERSING COGNITIVE IMPAIRMENTS AND LOSS USING SGLT2 INHIBITORS” (TAISHO PHARMACEUTICAL CO., LTD., priority 2019, published 2021)", "key": {"SGLT2": {"molecular_target": "T1, SGLT2 (Homo sapiens, UniProt P31639)", "T1 sequence (P31639 1-672)": "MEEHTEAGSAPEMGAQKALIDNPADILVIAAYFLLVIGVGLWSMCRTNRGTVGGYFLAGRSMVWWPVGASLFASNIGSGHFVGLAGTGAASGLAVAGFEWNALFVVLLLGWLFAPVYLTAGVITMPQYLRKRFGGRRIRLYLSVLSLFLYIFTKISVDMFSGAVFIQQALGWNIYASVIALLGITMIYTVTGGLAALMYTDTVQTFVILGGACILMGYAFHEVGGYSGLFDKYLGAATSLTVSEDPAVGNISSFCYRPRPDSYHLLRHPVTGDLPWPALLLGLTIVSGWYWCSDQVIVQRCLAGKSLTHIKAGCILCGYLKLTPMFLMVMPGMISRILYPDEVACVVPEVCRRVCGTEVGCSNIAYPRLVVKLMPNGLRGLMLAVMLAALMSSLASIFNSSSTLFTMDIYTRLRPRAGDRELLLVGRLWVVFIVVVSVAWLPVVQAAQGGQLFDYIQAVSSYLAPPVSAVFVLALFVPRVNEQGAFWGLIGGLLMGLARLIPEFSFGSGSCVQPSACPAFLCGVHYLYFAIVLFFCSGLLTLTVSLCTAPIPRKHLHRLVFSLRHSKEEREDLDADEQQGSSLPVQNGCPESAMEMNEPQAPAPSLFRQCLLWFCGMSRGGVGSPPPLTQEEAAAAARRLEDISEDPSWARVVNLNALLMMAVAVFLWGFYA", "details": "among the three FDA approved drugs; cited from earlier work"}, "diabetic patients": {"system": "diabetic patients", "details": "mean age 77 years, 12-month administration; cited from earlier work"}, "diabetic mice": {"system": "diabetic mice", "details": "cited from earlier work"}, "T2DN rats [1]": {"system": "T2DN rats", "assay": "Plasma glucose and HbA1c levels in aged diabetic T2DN rats during drug treatment", "assay_type": "in vivo, rat", "details": "20 mg/kg/day via drinking water, from 14 months of age for 4 months, FIG. 3", "description": "(§1) Unless otherwise indicated, all experiments using SGLT2 inhibitors were performed on 18-month old male Sprague Dawley (SD) and 14-month old […] rats, a genetic rat model of type II diabetes. Outbred SD rats purchased from Charles River were used as a nondiabetic control rat since identical genotypes are not necessary for this study. […] rats were prepared according to Diabetes, vol. 53, March 2004, pages 735-742. […] Treatment with an SGLT2 inhibitor began at 14-months of age and lasted for 4 months to determine whether control of hyperglycemia can slow the progression of cognitive dysfunction. Rats received either a vehicle or the SGLT2 inhibitor, luseogliflozin, at a dose of 20 mg/kg/day via drinking water. The SD rats were used as control. The levels of plasma glucose and HbA1c were measured by drawing a drop of blood from the tail vein during drug treatment and using traditional analytical methods to determine the concentration of plasma glucose and HbA1c."}, "T2DN rats [2]": {"system": "T2DN rats", "assay": "Eight-arm radial water maze test of spatial learning and memory", "assay_type": "in vivo, rat", "details": "DM (T2DN) rats, tests 2, 24, 48 and 72 hours post training; FIG. 8", "description": "Unless otherwise indicated, all experiments using SGLT2 inhibitors were performed on 18-month old male Sprague Dawley (SD) and 14-month old […] rats, a genetic rat model of type II diabetes. Outbred SD rats purchased from Charles River were used as a nondiabetic control rat since identical genotypes are not necessary for this study. […] rats were prepared according to Diabetes, vol. 53, March 2004, pages 735-742. […] Treatment with an SGLT2 inhibitor began at 14-months of age and lasted for 4 months to determine whether control of hyperglycemia can slow the progression of cognitive dysfunction. Rats received either a vehicle or the SGLT2 inhibitor, luseogliflozin, at a dose of 20 mg/kg/day via drinking water. The SD rats were used as control. […] The rats are trained to identify a platform marked with a visual cue in one of the 8 arms of the pool to escape. Four memory trials are performed at 2, 24, 48 and 72 hrs after the training, which consist of 4 consecutive swims. The time to reach the platform (latency), the number of errors, distance traveled and swim speed were recorded (Nat Protoc 1: 1671-1679, 2006). Control, DM and DM luseogliflozin treated rats were trained on the first day to recognize the platform located in one of the eight arms to escape, and repeated tests were performed 2, 24, 48, and 72 hours post training. The time taken by the rats to reach the platform was recorded. […]"}, "T2DN rats [3]": {"system": "T2DN rats", "assay": "Autoregulation of cerebral blood flow (laser Doppler flowmetry)", "assay_type": "in vivo, rat", "details": "aged T2DN rats, 20 mg/kg/day via drinking water for 4 months; FIG. 5", "description": "Measurements of arterial pressure and cortical blood flow (CBF) were performed by inserting cannulas in the femoral artery and vein for drug delivery and monitoring the mean arterial pressure (MAP). A closed cranial window was prepared on both sides of the brain by thinning the bone using a dental drill until the vessels on the surface of the brain could be visualized. Cortical blood flow (CBF) was measured using a laser Doppler flowmeter (LDF). Unless otherwise indicated, all experiments using SGLT2 inhibitors were performed on 18-month old male Sprague Dawley (SD) and 14-month old […] rats, a genetic rat model of type II diabetes. […] Next the effect of SGLT2 inhibitor was examined in the treatment of impaired myogenic response and autoregulation of cerebral blood flow was determined. […] The myogenic reactivity in response to an elevation in perfusion pressure was calculated by the formula: Dpressure/ID60 mmHg×100(%). […] After a 10-min equilibration period, baseline CBF was measured at 100 mmHg. […] CBF was measured at each step when the MAP reached a steady state. The infusion of phenylephrine was then stopped which allowed MAP to return to 100 mmHg, and CBF was re-recorded. […] Percentage change of CBF was calculated by the formula: [(CBFMAP-CBFbaseline)/CBFbaseline]×100(%)."}, "T2DN rats [4]": {"system": "T2DN rats", "assay": "Functional hyperemia (neurovascular coupling) in response to whisker stimulation", "assay_type": "in vivo, rat", "details": "old diabetic T2DN rats, whisker stimulation 10 Hz for 60 seconds; FIG. 7", "description": "as §1, with “[…] In these studies, neurovascular coupling (NVC) responses were investigated prior to cerebral autoregulation study. […] Cortical blood flow (CBF) was measured using a laser Doppler flowmeter ([…] probe was placed above somatosensory cortex for the recording” for “The levels”, “LDF signal change (CBFchange). Percentage changes in CBF at various perfusion pressures vs. CBF at perfusion pressure of 100 mmHg” for “plasma glucose and HbA1c”, “determined in response” for “measured by drawing a drop of blood from the tail vein during drug treatment and using traditional analytical methods”, “whisker stimulation.” for “determine the concentration of plasma glucose and HbA1c.”"}, "[5]": {"system": "middle cerebral artery of T2DN rats", "assay": "Pressure-induced myogenic response of isolated middle cerebral artery", "assay_type": "ex vivo, rat", "details": "aged T2DN rats, 20 mg/kg/day via drinking water for 4 months; FIG. 4", "source_text": "To measure the myogenic response of cerebral arteries, a section of the brain containing middle cerebral artery (MCA) was dissected and immediately placed in Tyrode's solution. A branch of the MCA was microdissected and cannulated with glass pipettes in a pressure myograph chamber filled with a physiologic salt solution (PSS). The vessels were equilibrated at a transmural pressure of 40 mmHg to develop spontaneous tone. After preconditioning, the inner diameter (ID) of MCA in response to intraluminal pressures ranging from 40 to 180 mmHg in steps of 20 mmHg was measured to access the myogenic response. Then, a passive pressure-diameter relationship was determined by replacing the bath solution with calcium-free PSS. The myogenic reactivity in response to an elevation in perfusion pressure was calculated by the formula: IDpressure/D40 mmHg×100(%). […] Next the effect of SGLT2 inhibitor was examined in the treatment of impaired myogenic response and autoregulation of cerebral blood flow was determined. […] The myogenic reactivity in response to an elevation in perfusion pressure was calculated by the formula: Dpressure/ID60 mmHg×100(%). […] After a 10-min equilibration period, baseline CBF was measured at 100 mmHg. […] CBF was measured at each step when the MAP reached a steady state. The infusion of phenylephrine was then stopped which allowed MAP to return to 100 mmHg, and CBF was re-recorded. […]"}, "T2DN rats [6]": {"system": "T2DN rats", "assay": "Blood-brain barrier leakage by Evans blue dye", "assay_type": "in vivo, rat", "details": "aged T2DN rats, long-term treatment, MAP 180 mmHg for 1 hour; FIG. 6", "description": "Unless otherwise indicated, all experiments using SGLT2 inhibitors were performed on 18-month old male Sprague Dawley (SD) and 14-month old […] rats, a genetic rat model of type II diabetes. Outbred SD rats purchased from Charles River were used as a nondiabetic control rat since identical genotypes are not necessary for this study. […] rats were prepared according to Diabetes, vol. 53, March 2004, pages 735-742. […] Treatment with an SGLT2 inhibitor began at 14-months of age and lasted for 4 months to determine whether control of hyperglycemia can slow the progression of cognitive dysfunction. Rats received either a vehicle or the SGLT2 inhibitor, luseogliflozin, at a dose of 20 mg/kg/day via drinking water. The SD rats were used as control. To determine the impact of higher cerebral blood flow with extended middle cerebral artery diameters on the brain, the brains of SGLT2-treated and untreated rats were assessed for blood brain leakage (BBB). Evans blue (EB) dye was used to compare the degree of BBB leakage. EB was injected via the femoral vein, and MAP was maintained at 180 mmHg for 1 hour by adjusting the infusion rate of phenylephrine. […] The brain was then homogenized and BBB leakage was quantitated using a fluorescent microplate reader at excitation and emission wavelengths of 620 nm and 680 nm."}}}
{"smiles": "Cc1ccc([C@@H]2O[C@H](CO)[C@@H](O)[C@H](O)[C@H]2O)cc1Cc1ccc(-c2ccc(F)cc2)s1", "note": "[canagliflozin]", "values": [{"measurement": "selectivity for SGLT2 compared to SGLT1", "setting": "SGLT2", "value": "least selective"}, {"measurement": "cognitive functions (cognitive performance)", "setting": "diabetic patients", "value": "no worsening of their cognitive functions"}]}
{"smiles": "OC[C@H]1O[C@@H](c2ccc(Cl)c(Cc3ccc(O[C@H]4CCOC4)cc3)c2)[C@H](O)[C@@H](O)[C@@H]1O", "note": "[empagliflozin]", "values": [{"measurement": "selectivity for SGLT2 compared to SGLT1", "setting": "SGLT2", "value": "greatest selectivity"}, {"measurement": "cognitive functions (cognitive performance)", "setting": "diabetic patients", "value": "no worsening of their cognitive functions"}, {"measurement": "cognitive function", "setting": "diabetic mice", "value": "cognitive function improving effect"}]}
{"smiles": "CCOc1ccc(Cc2cc([C@@H]3S[C@H](CO)[C@@H](O)[C@H](O)[C@H]3O)c(OC)cc2C)cc1", "note": "[luseogliflozin]", "values": [{"measurement": "levels of HbA1c", "setting": "T2DN rats [1]", "value": "reduced both the levels of plasma glucose and HbA1c to near normal"}, {"measurement": "levels of plasma glucose", "setting": "T2DN rats [1]", "value": "reduced both the levels of plasma glucose and HbA1c to near normal"}, {"measurement": "escape time (time to reach the platform), cognitive performance", "setting": "T2DN rats [2]", "value": "reduced escape time similar to normal rats"}, {"measurement": "cerebral blood flow on elevation of MAP (autoregulation)", "setting": "T2DN rats [3]", "value": "restored to normal levels"}, {"measurement": "functional hyperemia in response to whisker stimulation", "setting": "T2DN rats [4]", "value": "restored"}, {"measurement": "diameters of middle cerebral artery upon exposure to higher perfusion pressures (myogenic response)", "setting": "[5]", "value": "completely reversed the increase in the diameters of middle cerebral artery"}, {"measurement": "blood brain barrier damage (Evans blue leakage)", "setting": "T2DN rats [6]", "value": "completely reversed the blood brain barrier damage"}]}
